From patent publication US11407748B2, “Substituted pyrido[1,2-a]pyrimidines and pyrazino[1,2-a]pyrimidines for enhancing AMPA receptor function” (Takeda Pharmaceutical Company Limited, priority 2017, dated 2022) come the findings set out here.

The target of the assay is T1, hGluR1 flip (Homo sapiens, UniProt P42261).
T1 construct: expressed in transfected cells; host or cells: CHO-K1
Kind of assay: AMPA receptor function-enhancing activity using calcium influx as index. It counts as cell-based. To be noted: test compound 30 μM with 3 mM glutamic acid; CHO-K1/GluR1 flip/stargazin-expressing cells; 100% = 3 mM glutamic acid + 300 μM cyclothiazide, 0% = 3 mM glutamic acid alone. From the text: Experimental Example 1 Measurement Method of AMPA Receptor Function-Enhancing Activity of Compound Using Calcium Influx as Index
(1) Construction of Expression Gene
Human GluR^1 flip cDNA was amplified by PCR method using forward primer […] (SEQ ID NO: 1) and reverse primer […] (SEQ ID NO: 2) artificially synthesized using human brain-derived cDNA (BD Bioscience) as a template. The amplified product was digested with restriction enzymes EcoRI, NotI (TAKARA SHUZO CO. LTD.) and incorporated into the same site of pcDNA3.1 (+) (Invitrogen) to construct pcDNA3.1(+)/human GluR1 flip gene. Human stargazin cDNA was amplified by PCR method using forward primer […] (SEQ ID NO: 3) and reverse primer […] (SEQ ID NO: 4) artificially synthesized using human hippocampus cDNA as a template. The amplified product was digested with restriction enzymes XhoI, BamHI (TAKARA SHUZO CO. LTD.) and incorporated into the same site of pcDNA3.1(−) (Invitrogen) to construct pcDNA3.1 Zeo(−)/human stargazing gene.
(2) Construction of GluR1 Flip/Stargazin Expressing Cell
CHO-K1 cells passaged in a culture medium (Ham's F12 medium (Invitrogen) added with 10% inactivated fetal bovine serum (Morgate) and penicillin, streptomycin (Invitrogen)) were detached using 0.05% trypsin and 0.53 mM EDTA (Invitrogen) diluted with D-PBS(−). The detached cells were suspended in a culture medium, and recovered by centrifugation at 1,000 rpm. The recovered cells were re-suspended in D-PBS(−) and added into 0.4 cm electroporation cuvette (BioRad). pcDNA3.1(+)/human GluR1 flip gene (5 μg) and pcDNA3.1 Zeo(−)/human stargazin gene (15 μg) were added, and introduced into CHO-K1 cells under the conditions of 950 μFd, […] and using Gene Pulser II (BioRad). The introduced cells were cultured overnight in a culture medium. The next day, using a selection medium (culture medium added with zeocin (Invitrogen) at 250 μg/mL), the cells were plated in a 96 well plate at 250 cells/well. The clones showing drug resistance were selected, and GluR1 flip/stargazin expression clones were selected by an assay method shown below using calcium influx as an index.
(3) Measurement Method of AMPA Receptor Function-Enhancing Activity of Compound, Using Calcium Influx as an Index
CHO-K1/GluR1 flip/stargazin-expressing cells were plated on a 384 well black bottom transparent plate, and cultured for 2 days in a CO2 incubator (SANYO ELECTRIC Co. Ltd.) at 37° C. The medium of the cell plate was removed. A calcium indicator (Calcium5 Assay Kit, Molecular Devices) was diluted with an assay buffer (HESS (Thermo Fisher Scientific), 0.1% BSA (Merck Millipoer) and 10 mM HEPES (Thermo Fisher Scientific)), and 1.25 mM probenecid (Dojindo Laboratories) was added thereto. The mixture prepared above was added at 30 μL/well (100 μL/well in case of 96 wells) to the well, and the well was left standing in 37° C., CO2 incubator for 1 hr. The cell plate was set in CellLux (PerkinElmer), a mixture (15 μL) (50 μL/well in case of 96 wells) of 9 mM glutamic acid (final concentration 3 mM) diluted with an assay buffer and a test compound (test compound concentration 30 μM) was added thereto, and variation in the amount of fluorescence was measured for 3 min. The variation of fluorescence level of a well added with final concentration 3 mM of glutamic acid and 300 μM cyclothiazide (TOCRIS) was defined as 100%, the variation of fluorescence level of a well added with final concentration 3 mM of glutamic acid alone was defined as 0%, and the activity of the compound was calculated by the following formula. activity (%)=(X−C)/(T−C)×100 • T: variation of fluorescence level of well added with final concentration 3 mM of glutamic acid and 300 μM cyclothiazide • C: variation of fluorescence level of well added with final concentration 3 mM of glutamic acid alone • X: variation of fluorescence level of well added with test compound

T1 sequence (P42261 19-906 isoform P42261-2 limits assumed): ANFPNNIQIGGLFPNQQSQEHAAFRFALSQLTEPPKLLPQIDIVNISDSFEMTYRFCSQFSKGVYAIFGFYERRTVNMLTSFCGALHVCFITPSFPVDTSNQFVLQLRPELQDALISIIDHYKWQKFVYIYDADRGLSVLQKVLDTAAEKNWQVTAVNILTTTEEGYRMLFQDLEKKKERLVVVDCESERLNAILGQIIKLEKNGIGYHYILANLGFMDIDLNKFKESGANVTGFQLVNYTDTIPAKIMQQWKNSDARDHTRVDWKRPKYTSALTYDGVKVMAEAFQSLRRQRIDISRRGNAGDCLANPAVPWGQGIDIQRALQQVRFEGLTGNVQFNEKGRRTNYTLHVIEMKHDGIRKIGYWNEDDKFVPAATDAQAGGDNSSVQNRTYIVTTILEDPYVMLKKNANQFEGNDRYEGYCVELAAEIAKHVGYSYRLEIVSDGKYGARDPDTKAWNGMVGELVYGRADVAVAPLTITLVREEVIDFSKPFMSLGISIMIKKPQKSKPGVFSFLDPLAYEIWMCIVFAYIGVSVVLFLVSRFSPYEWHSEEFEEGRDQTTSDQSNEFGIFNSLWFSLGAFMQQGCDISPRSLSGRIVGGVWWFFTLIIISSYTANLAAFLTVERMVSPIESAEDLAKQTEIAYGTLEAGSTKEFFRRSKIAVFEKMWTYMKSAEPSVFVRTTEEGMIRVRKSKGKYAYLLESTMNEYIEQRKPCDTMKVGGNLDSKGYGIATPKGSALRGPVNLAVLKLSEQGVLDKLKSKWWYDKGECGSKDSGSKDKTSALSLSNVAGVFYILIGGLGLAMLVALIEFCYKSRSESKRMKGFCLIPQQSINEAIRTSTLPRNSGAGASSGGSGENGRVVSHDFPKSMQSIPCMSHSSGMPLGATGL
T1 sequence (Q9Y698 whole entry partner): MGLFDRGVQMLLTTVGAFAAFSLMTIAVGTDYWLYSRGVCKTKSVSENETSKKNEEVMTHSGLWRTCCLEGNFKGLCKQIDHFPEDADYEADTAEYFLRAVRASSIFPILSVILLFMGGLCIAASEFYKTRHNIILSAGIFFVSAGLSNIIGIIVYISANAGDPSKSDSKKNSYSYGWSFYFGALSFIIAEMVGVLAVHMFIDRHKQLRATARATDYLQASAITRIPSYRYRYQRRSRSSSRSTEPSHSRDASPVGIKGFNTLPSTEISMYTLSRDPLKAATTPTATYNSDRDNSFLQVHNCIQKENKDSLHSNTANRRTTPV

`CCN(CCC#N)C(=O)c1ccc(-c2cccn3c(=O)c(Br)c(C(F)(F)F)nc23)cc1` [Example 25, 4-(3-bromo-4-oxo-2-(trifluoromethyl)-4H-pyrido[1,2-a]pyrimidin-9-yl)-N-(2-cyanoethyl)-N-ethylbenzamide]: the activation at 30 µM turned out to be 91%.
On to `O=C(NCC(F)F)c1ccc(-c2cccn3c(=O)cc(C(F)(F)F)nc23)cc1` [Example 26, N-(2,2-difluoroethyl)-4-(4-oxo-2-(trifluoromethyl)-4H-pyrido[1,2-a]pyrimidin-9-yl)benzamide], for which the activation at 30 µM stood at 74.9%.
Turning to `CC1(O)CCN(C(=O)c2ccc(-c3cccn4c(=O)cc(C(F)(F)F)nc34)cc2)C1` (stereo not drawn) [Example 28, 9-(4-((3-hydroxy-3-methylpyrrolidin-1-yl)carbonyl)phenyl)-2-(trifluoromethyl)-4H-pyrido[1,2-a]pyrimidin-4-one], the activation at 30 µM came out at 79.3%.
Consider `O=C(c1ccc(-c2cccn3c(=O)cc(C(F)(F)F)nc23)cc1)N1CCC(O)(C(F)(F)F)CC1` [Example 33, 9-(4-((4-hydroxy-4-(trifluoromethyl)piperidin-1-yl)carbonyl)phenyl)-2-(trifluoromethyl)-4H-pyrido[1,2-a]pyrimidin-4-one], for which the activation at 30 µM worked out at 79.4%.
The figure for `O=C(NCC(F)(F)F)c1ccc(-c2cccn3c(=O)c(Cl)c(C(F)(F)F)nc23)cc1` [Example 35, 4-(3-chloro-4-oxo-2-(trifluoromethyl)-4H-pyrido[1,2-a]pyrimidin-9-yl)-N-(2,2,2-trifluoroethyl)benzamide] is 79.8%; for `O=C(c1ccc(-c2cccn3c(=O)cc(C(F)(F)F)nc23)cc1)N1CCCC(O)(C(F)(F)F)C1` (stereo not drawn) [Example 36, 9-(4-((3-hydroxy-3-(trifluoromethyl)piperidin-1-yl)carbonyl)phenyl)-2-(trifluoromethyl)-4H-pyrido[1,2-a]pyrimidin-4-one] it is 101%.
In the case of `Cc1c(C(F)(F)F)nc2c(-c3ccc(C(=O)N4CCOCC4)cc3)cccn2c1=O` [Example 37, 3-methyl-9-(4-(morpholin-4-ylcarbonyl)phenyl)-2-(trifluoromethyl)-4H-pyrido[1,2-a]pyrimidin-4-one], the activation at 30 µM came out at 74.9%.
In the case of `N#CC1CCCN(C(=O)c2ccc(-c3cccn4c(=O)c(Cl)c(C(F)(F)F)nc34)cc2)C1` (stereo not drawn) [Example 38, 1-(4-(3-chloro-4-oxo-2-(trifluoromethyl)-4H-pyrido[1,2-a]pyrimidin-9-yl)benzoyl)piperidine-3-carbonitrile], the activation at 30 µM was 99.3%.
As to `CN(CCC#N)C(=O)c1ccc(-c2cccn3c(=O)c(Cl)c(C(F)(F)F)nc23)cc1` [Example 39, 4-(3-chloro-4-oxo-2-(trifluoromethyl)-4H-pyrido[1,2-a]pyrimidin-9-yl)-N-(2-cyanoethyl)-N-methylbenzamide], the activation at 30 µM is 85.9%.
The result for `O=C(NCC(F)F)c1ccc(-c2cccn3c(=O)cc(C(F)(F)F)nc23)cc1F` [Example 42] reads 83.6%; that for `O=C(NCC(F)(F)F)c1ccc(-c2cccn3c(=O)cc(C(F)(F)F)nc23)cc1F` [Example 43, 2-fluoro-4-(4-oxo-2-(trifluoromethyl)-4H-pyrido[1,2-a]pyrimidin-9-yl)-N-(2,2,2-trifluoroethyl)benzamide], 84.1%; that for `O=C(c1ccc(-c2cccn3c(=O)cc(C(F)(F)F)nc23)cc1F)N1CCOCC1` [Example 44, 9-(3-fluoro-4-(morpholin-4-ylcarbonyl)phenyl)-2-(trifluoromethyl)-4H-pyrido[1,2-a]pyrimidin-4-one], 73.8%.
The result for `Cc1c(C(F)(F)F)nc2c(-c3ccc(C(=O)N4CCOCC4)c(F)c3)cccn2c1=O` [Example 45, 9-(3-fluoro-4-(morpholin-4-ylcarbonyl)phenyl)-3-methyl-2-(trifluoromethyl)-4H-pyrido[1,2-a]pyrimidin-4-one] reads 82.6%; that for `O=C(c1ccc(-c2cccn3c(=O)c(Br)c(C(F)(F)F)nc23)cc1F)N1CCOCC1` [Example 46, 3-bromo-9-(3-fluoro-4-(morpholin-4-ylcarbonyl)phenyl)-2-(trifluoromethyl)-4H-pyrido[1,2-a]pyrimidin-4-one], 77.3%.
As to `C[C@@H]1CN(C(=O)c2ccc(-c3cccn4c(=O)c(Br)c(C(F)(F)F)nc34)cc2)CCO1` [Example 49, 3-bromo-9-(4-(((2R)-2-methylmorpholin-4-yl)carbonyl)phenyl)-2-(trifluoromethyl)-4H-pyrido[1,2-a]pyrimidin-4-one], the activation at 30 µM worked out at 71.6%.
Regarding `O=C(N[C@H]1CCOC1)c1ccc(-c2cccn3c(=O)c(Br)c(C(F)(F)F)nc23)cc1` [Example 55, 4-(3-bromo-4-oxo-2-(trifluoromethyl)-4H-pyrido[1,2-a]pyrimidin-9-yl)-N-((3S)-tetrahydrofuran-3-yl)benzamide], the activation at 30 µM stood at 75.1%.
For the compound `O=C(NC1CCOCC1)c1ccc(-c2cccn3c(=O)c(Br)c(C(F)(F)F)nc23)cc1` [Example 57, 4-(3-bromo-4-oxo-2-(trifluoromethyl)-4H-pyrido[1,2-a]pyrimidin-9-yl)-N-(tetrahydro-2H-pyran-4-yl)benzamide], the activation at 30 µM came out at 78.7%.
As for `O=C(c1ccc(-c2cccn3c(=O)c(Br)c(C(F)(F)F)nc23)cc1)N1CCC1` [Example 61, 9-(4-(azetidin-1-ylcarbonyl)phenyl)-3-bromo-2-(trifluoromethyl)-4H-pyrido[1,2-a]pyrimidin-4-one], the activation at 30 µM was 77.1%.
With `O=C(c1ccc(-c2cccn3c(=O)c(Br)c(C(F)(F)F)nc23)cc1)N1CCCC1` [Example 62, 3-bromo-9-(4-(pyrrolidin-1-ylcarbonyl)phenyl)-2-(trifluoromethyl)-4H-pyrido[1,2-a]pyrimidin-4-one], the activation at 30 µM was found to be 76.9%.
For the compound `O=C(c1ccc(-c2cccn3c(=O)c(Br)c(C(F)(F)F)nc23)cc1)N1CCc2cccnc21` [Example 65, 3-bromo-9-(4-(2,3-dihydro-1H-pyrrolo[2,3-b]pyridin-1-ylcarbonyl)phenyl)-2-(trifluoromethyl)-4H-pyrido[1,2-a]pyrimidin-4-one], the activation at 30 µM stood at 74.6%.
For `Cc1c(C(F)(F)F)nc2c(-c3ccc(C(=O)N4CCO[C@@H](C)C4)cc3)cccn2c1=O` [Example 67, 3-methyl-9-(4-(((2S)2-methylmorpholin-4-yl)carbonyl)phenyl)-2-(trifluoromethyl)-4H-pyrido[1,2-a]pyrimidin-4-one], the activation at 30 µM is 73.5%.
Turning to `Cc1c(C(F)(F)F)nc2c(-c3ccc(C(=O)N4CCOC(F)(F)C4)cc3)cccn2c1=O` [Example 68, 9-(4-((2,2-difluoromorpholin-4-yl)carbonyl)phenyl)-3-methyl-2-(trifluoromethyl)-4H-pyrido[1,2-a]pyrimidin-4-one], the activation at 30 µM is 88.4%.
As for `Cc1c(C(F)(F)F)nc2c(-c3ccc(C(=O)N4CCCOCC4)cc3)cccn2c1=O` [Example 69, 3-methyl-9-(4-(1,4-oxazepan-4-ylcarbonyl)phenyl)-2-(trifluoromethyl)-4H-pyrido[1,2-a]pyrimidin-4-one], the activation at 30 µM was determined as 79.9%.
Take `O=C(NCC1CC1)c1ccc(-c2cccn3c(=O)c(Br)c(C(F)(F)F)nc23)cc1F` [Example 70, 4-(3-bromo-4-oxo-2-(trifluoromethyl)-4H-pyrido[1,2-a]pyrimidin-9-yl)-N-(cyclopropylmethyl)-2-fluorobenzamide]: the activation at 30 µM was found to be 71.4%.
